The record followed here is ChEMBL document CHEMBL1201862, “PubChem BioAssay data set” (2004).

The structures appear in SMILES notation.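 48-hour exposure; five concentrations; linearly interpolated endpoints. The concentration for 50% growth inhibition is given as GI50.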 Activity calls are given as the source filed them. No stated cut-off is given here; in the data, active = GI50 up to about 1.1 µM and inactive = higher. Where only a bound is given, the exact number is not on record here.

Common to all, as to assay: DTP human tumour cell line panel, 48 h
Test [1] has as its system T47D.
In test [2] the test system is SR.
Test [3] concerns SK-OV-3.
For test [4], the system named is 786-0.
The test system of test [5] is UACC-62.
Test [6] relates to SNB-19.
In test [7] the test system is TK-10.
Test [8] relates to OVCAR-3.
The test system of test [9] is SF-295.
Test [10] deals with SN12C.
In test [11] the test system is RPMI-8226.
The subject of test [12] is HCT-15.
The test system of test [13] is Malme-3M.
The test system of test [14] is COLO 205.
Test [15] deals with NCI-H23.
The test system of test [16] is HOP-92.
For test [17], the system named is RXF 393.
In test [18] the test system is HL-60.
The test system of test [19] is SNB-75.
The subject of test [20] is PC-3.

One may read the GI50 as the concentration at which growth is held to half of that of the control. Consider `O=C(O)CCCSc1nc2ccccc2s1`, for which the GI50 in test [1], in test [2], in test [3], in [4], in test [5] and in test [6] was > 100 µM (inactive) each time. For the same compound, the GI50 is > 100 µM (inactive) in test [7]; > 100 µM (inactive) in test [8]; > 100 µM (inactive) in [9]; > 100 µM (inactive) in test [10]; > 100 µM (inactive) in test [11]; more than 100 µM in test [12]. For the same compound, the GI50 in test [13], in test [14], in test [15], in test [16], in test [17] and in test [18] was > 100 µM (inactive) throughout. Besides, the GI50 in [19] and in test [20] was > 100 µM (inactive) each time.

For the compound `Nc1nc(F)nc2c1ncn2C1OC(COP(=O)(O)O)C(O)C1O` (stereo not given), the GI50 is 78.7 µM (inactive) in [1]; 21.8 µM (inactive) in [2]; 26.9 µM (inactive) in [3]; 39.5 µM (inactive) in [4]; 56.2 µM (inactive) in [5]; 25.1 µM (inactive) in test [6]. For the same compound, the GI50 in [7] was 128 µM (inactive); in [8], 119 µM (inactive); in test [9], 309 µM (inactive); in [10] it was 6.47 µM (inactive); in [11], 80.4 µM (inactive); in test [12], 175 µM. Besides, the GI50 in [13] is 23.3 µM (inactive); in [14] it was 95.1 µM (inactive); in [15], 19.6 µM (inactive); in test [16], 7.38 µM (inactive); in test [17] it was 51.4 µM (inactive); in [18] it was 5.4 µM (inactive). The GI50 in [19] is 188 µM (inactive); in [20], 16.6 µM (inactive).

With `Clc1ccc(NCNC2Nc3ccccc3N2)cc1Cl`, the GI50 in [1] is 12.6 µM (inactive); in test [2], 37.1 µM (inactive); in test [3], 48.8 µM (inactive); in test [4] it was 66.8 µM (inactive); in test [5], 2.26 µM (inactive); in test [6] it was > 100 µM (inactive). Also, the GI50 in [7] was 55.6 µM (inactive); in test [8], 29.3 µM (inactive); in test [9], 20.4 µM (inactive); in [10] it was 22.6 µM (inactive); in test [11], 26.4 µM (inactive); in test [12] it was 31.1 µM. Moreover, the GI50 in test [13] was 92.9 µM (inactive); in test [14], 35.8 µM (inactive); in test [15], > 100 µM (inactive); in test [16] it was 48.4 µM (inactive); in test [17], 30.8 µM (inactive); in test [18], 41.3 µM (inactive). Moreover, the values for the GI50 in [19] and in [20] were 19.8 µM (inactive) and 50.1 µM (inactive), respectively.

Consider `CCN(CC)C(=O)C1=C(C)NC(C)=C(C(=O)N(CC)CC)C1`, for which the GI50 is 58.1 µM (inactive) in test [1]; > 100 µM (inactive) in [2]; > 100 µM (inactive) in [3]; > 100 µM (inactive) in test [4]; > 100 µM (inactive) in test [5]; > 100 µM (inactive) in test [6]. Further, the GI50 in test [7] was > 100 µM (inactive); in [8], > 100 µM (inactive); in [9] it was > 100 µM (inactive); in test [10], > 100 µM (inactive); in [11], > 100 µM (inactive); in test [12], more than 100 µM. Also, the GI50 in test [13], in test [14], in test [15], in test [16], in test [17] and in test [18] was > 100 µM (inactive) throughout. The GI50 in test [19] is 14.5 µM (inactive); in test [20], > 100 µM (inactive).

For `NC(Cc1ccc2nc3c4ccccc4c(=O)cc-3oc2c1)C(=O)O` (stereo not given), the GI50 was > 100 µM (inactive) in [1]; > 100 µM (inactive) in test [2]; > 100 µM (inactive) in [3]; > 100 µM (inactive) in [4]; 32.7 µM (inactive) in test [5]; > 100 µM (inactive) in test [6]. Besides, the GI50 is > 100 µM (inactive) in test [7]; 74.1 µM (inactive) in test [8]; > 100 µM (inactive) in test [9]; > 100 µM (inactive) in test [10]; > 100 µM (inactive) in test [11]; more than 100 µM in test [12]. The GI50 in [13] was 14.8 µM (inactive); in test [14] it was 20.9 µM (inactive); in [15], 17.6 µM (inactive); in test [16] it was > 100 µM (inactive); in test [17], > 100 µM (inactive); in [18], > 100 µM (inactive). Moreover, the results for the GI50 in [19] and in test [20] were 65.8 µM (inactive) and > 100 µM (inactive), respectively.

On to `O=C1OC(CN2CCN(c3ccccc3)CC2)CN1C(=S)Nc1ccccc1` (stereo not given), for which the GI50 in test [1], in [2], in test [3], in [4], in test [5] and in test [6] was > 100 µM (inactive) throughout. The GI50 in test [7] was > 100 µM (inactive); in [8], > 100 µM (inactive); in test [9], > 100 µM (inactive); in test [10], > 100 µM (inactive); in test [11], 92.5 µM (inactive); in test [12] it was more than 100 µM. Moreover, the GI50 in [13], in test [14], in [15], in [16], in [17] and in test [18] was > 100 µM (inactive) throughout. Further, the GI50 was 65.6 µM (inactive) in test [19] and 84.7 µM (inactive) in test [20].

With `O=C(Nc1nnc(-c2ccc(Cl)cc2)o1)C(SC(=S)N1CCCCC1)c1ccccc1` (stereo not given), the GI50 in test [1] is 27.2 µM (inactive); in [2], 3.91 µM (inactive); in test [3], 32.3 µM (inactive); in test [4], 14.8 µM (inactive); in [5] it was 14.2 µM (inactive); in test [6] it was 20.5 µM (inactive). Moreover, the GI50 was 34 µM (inactive) in test [7]; 19.3 µM (inactive) in test [8]; 12 µM (inactive) in test [9]; 12.5 µM (inactive) in test [10]; 11.2 µM (inactive) in [11]; 7.16 µM in [12]. Further, the GI50 was 3.11 µM (inactive) in [13]; 24.4 µM (inactive) in test [14]; 21.9 µM (inactive) in [15]; 22.7 µM (inactive) in test [16]; 24.8 µM (inactive) in test [17]; 8.59 µM (inactive) in test [18]. Moreover, the GI50 in test [19] was 39.1 µM (inactive); in test [20], 22.4 µM (inactive).

As for `CC(=O)c1cccc2c1CC1(C2)Cc2ccc3c(c2C1=O)CCC3` (stereo not given), the GI50 in test [1] is 29.1 µM (inactive); in [2] it was 14.8 µM (inactive); in test [3] it was 83.6 µM (inactive); in test [4], 41.2 µM (inactive); in test [5], 78.5 µM (inactive); in test [6], > 100 µM (inactive). The GI50 in [7] was 24.2 µM (inactive); in test [8], 23.5 µM (inactive); in [9], 43.2 µM (inactive); in [10] it was 35.8 µM (inactive); in [11], 17.3 µM (inactive); in test [12], 33.6 µM. The GI50 is 14.3 µM (inactive) in [13]; 26.5 µM (inactive) in test [14]; 67.8 µM (inactive) in test [15]; 12.6 µM (inactive) in [16]; 33 µM (inactive) in [17]; 3.64 µM (inactive) in [18]. Further, the GI50 in test [19] is 35.9 µM (inactive); in test [20], 32.5 µM (inactive).

For `O=c1/c(=C/c2ccc([N+](=O)[O-])o2)sc2n1[C@@H](c1ccc3c(c1)OCO3)C=C(c1cc(F)c(Cl)cc1Cl)N=2`, the GI50 in [1] was 17.3 µM (inactive); in test [2], 3.33 µM (inactive); in [3] it was 46.5 µM (inactive); in test [4], 9.51 µM (inactive); in [5] it was 15.9 µM (inactive); in [6], 20.8 µM (inactive). For the same compound, the GI50 in test [7] was 23.3 µM (inactive); in test [8] it was 16.8 µM (inactive); in test [9], 31.2 µM (inactive); in [10], 18 µM (inactive); in test [11], 9.31 µM (inactive); in test [12] it was 9.59 µM. The GI50 in test [13] was 19.7 µM (inactive); in test [14] it was 18.7 µM (inactive); in test [15] it was 20.6 µM (inactive); in [16], 12.6 µM (inactive); in test [17] it was 16.1 µM (inactive); in test [18], 15.6 µM (inactive). Besides, the GI50 is 17.3 µM (inactive) in test [19] and 22 µM (inactive) in test [20].

`CN(C)CCNc1ccc2ncnc3c2c1C(=O)c1ccccc1-3`: the GI50 in [1] is 0.619 µM (active); in test [2], 0.0824 µM (active); in test [3], 1.81 µM (inactive); in [4], 0.215 µM (active); in test [5], 0.757 µM (active); in [6], 1.02 µM (active). For the same compound, the GI50 is 0.175 µM (active) in test [7]; 0.556 µM (active) in test [8]; 0.174 µM (active) in test [9]; 0.332 µM (active) in [10]; 0.263 µM (active) in test [11]; 0.323 µM in test [12]. Also, the GI50 in test [13] is 0.166 µM (active); in [14], 0.433 µM (active); in [15], 0.655 µM (active); in test [16], 1.12 µM (active); in test [17], 0.444 µM (active); in test [18] it was 2.58 µM (inactive). Also, the GI50 is 0.446 µM (active) in test [19] and 0.519 µM (active) in test [20].
